≈ marks a conversion by molar mass, not a printed value.
Tested on: Helicobacter pylori
Experiment: activity against Helicobacter pylori (method of Iwahi et al., Columbia agar, growth period of 4 days)
Type: cell-based
Details: Columbia agar (Oxoid); for MIC50: 96 h, read-out: Approximate MIC50

Row | MIC50 [µg/mL] | Structure (SMILES) | Approximate MIC50 [µg/mL]
1 | ~0.5 (≈ 1.12 µM) | Cc1c(SCc2ccco2)ccnc1CSc1nc2ccccc2n1S(C)(=O)=O [Compound 10, 2-{[[4-(2-Furylmethylthio)-3-methyl-2-pyridinyl]methyl]thio}-1-methylsulfonyl-benzimidazole] | –
2 | ~0.1 (≈ 0.271 µM) | Cc1c(SCc2ccco2)ccnc1CSc1nc2cccnc2[nH]1 [Compound 1, 2-{[[4-(2-Furylmethylthio)-3-methyl-2-pyridinyl]methyl]thio}-1H-imidazo-[2,3-b]-pyridine] | –
3 | – | CCCC(=O)n1c(SCc2nccc(SCc3ccco3)c2C)nc2ccccc21 [Compound 9, 1-n-Butyroyl-2-{[[4-(2-furylmethylthio)-3-methyl-2-pyridinyl]methyl]thio}benzimidazole] | ~0.1
4 | ~0.1 (≈ 0.237 µM) | C=CC(=O)n1c(SCc2nccc(SCc3ccco3)c2C)nc2ccccc21 [Compound 8, 1-Acryloyl-2-{[[4-(2-furylmethylthio)-3-methyl-2-pyridinyl]methyl]thio}benzimidazole] | –
5 | ~0.5 (≈ 1.22 µM) | CC(=O)n1c(SCc2nccc(SCc3ccco3)c2C)nc2ccccc21 [Compound 7, 1-Acetyl-2-{[[4-(2-furylmethylthio)-3-methyl-2-pyridinyl]methyl]thio}benzimidazole] | –

Reference: patent US6107312A, “Thiopyridines for use in the control of helicobacter bacteria” (BYK Gulden Lomberg Chemische Fabrik GmbH, priority 1994, dated 2000)
